These are literature values, as cited in paper PMC2363746, “Phase I dose-escalation and pharmacokinetic study of a novel folate analogue AG2034” (British Journal of Cancer, 2001).

Regarding `Nc1nc2c(c(=O)[nH]1)C[C@@H](CCc1ccc(C(=O)N[C@@H](CCC(=O)O)C(=O)O)cc1)CN2` [lometrexol, (6R)-5,10-dideazatetrahydrofolate], under “in vivo”, the “Unexpected toxicity in phase I studies” value was “myelosuppression and mucositis”. The “Antitumour activity in phase I studies” value (ref Ray et al, 1993) was “objective antitumour activity”.
